Reference: US20260250325A1, “Antiviral Polypeptide Membrane Fusion Inhibitor, and Preparation Method and Application Thereof” (priority 2025, published 2026)
Where a SMILES comes first, the peptide text is derived from it. The star is where a group is joined. X1 = CC(C)CCCC(C)C1CCC2C3CC=C4CC(OC(=O)CCC(=O)*)CCC4(C)C3CCC12C

Key:
RSV A long virus strain = format: cell-based; settings: RSV A long virus strain, HEp-2 cells, plaque reduction, 1 day; read-out: IC50
Method in brief: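 HEp-2 cells (30000/well) infected with 100 PFU virus premixed 1 h with compound (8 concentrations, duplicate); after 2 h adsorption, cultured 1 day at 37 °C under 0.8% CMC overlay with compound. Plaques immunostained (RSV antibody, TrueBlue) and counted; IC50 and CC50 by non-linear fitting of % inhibition versus virus and cell controls.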

[1] = Cytotoxicity test in HEp-2 cells (CCK8 cell viability); format: cell-based; settings: human; HEp-2 cells, CCK8, 1 day; read-out: CC50
Method in brief: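 HEp-2 cells seeded at 30,000/well, cultured overnight at 37° C./5% CO2, then exposed to diluted compound for 1 day in 0.5% DMSO. Viability read by CCK8, normalised to untreated-cell and medium-only controls; CC50 from four-parameter variable-slope fit.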

Structure (SMILES)	IC50 (RSV A long virus strain)	CC50 at 1 day [1]
CC[C@H](C)[C@H](NC(C)=O)C(=O)N[C@@H](CC(C)C)C(=O)N[C@@H](CCC(=O)O)C(=O)N[C@@H](CC(C)C)C(=O)N[C@H](C(=O)N[C@@H](CC(N)=O)C(=O)N[C@@H](CCCCN)C(=O)N[C@@H](CCCCN)C(=O)N[C@H](C(=O)N[C@@H](CCC(=O)O)C(=O)N[C@@H](CCC(N)=O)C(=O)N[C@@H](CO)C(=O)N[C@@H](CC(C)C)C(=O)N[C@@H](CCCCN)C(=O)N[C@@H](Cc1ccccc1)C(=O)N[C@H](C(=O)N[C@@H](CCC(=O)O)C(=O)N[C@@H](CCCCN)C(=O)N[C@@H](CO)C(=O)N[C@@H](CC(=O)O)C(=O)N[C@@H](CCCCN)C(=O)N[C@@H](CC(C)C)C(=O)N[C@@H](CC(C)C)C(=O)N[C@@H](CCC(=O)O)C(=O)N[C@@H](CC(N)=O)C(=O)N[C@@H](CCC(=O)O)C(=O)N[C@@H](C)C(=O)N[C@@H](C)C(=O)N[C@@H](C)C(=O)N[C@@H](CCCCN)C(=O)N[C@@H](CCCCNC(=O)CCC(=O)OC1CCC2(C)C(=CCC3C2CCC2(C)C(C(C)CCCC(C)C)CCC32)C1)C(N)=O)[C@@H](C)CC)[C@@H](C)CC)C(C)C (stereo partly drawn) [Compound 32] (Ac-ILELVNKKIEQSLKFIEKSDKLLENEAAAKK(X1)-NH2)	0.296 µM	> 8 µM
CC[C@H](C)[C@H](NC(=O)[C@H](CCCCN)NC(=O)[C@H](CCCCN)NC(=O)[C@H](CC(N)=O)NC(=O)[C@@H](NC(=O)[C@H](CCC(N)=O)NC(=O)[C@H](CCC(=O)O)NC(=O)[C@H](CC(C)C)NC(=O)[C@H](CO)NC(C)=O)C(C)C)C(=O)N[C@@H](CC(N)=O)C(=O)N[C@@H](CCC(N)=O)C(=O)N[C@@H](CO)C(=O)N[C@@H](CC(C)C)C(=O)N[C@@H](CCCCN)C(=O)N[C@H](C(=O)N[C@@H](CC(N)=O)C(=O)N[C@@H](CCCCN)C(=O)N[C@@H](CCCCN)C(=O)N[C@@H](CO)C(=O)N[C@@H](CC(=O)O)C(=O)N[C@@H](CCCCN)C(=O)N[C@@H](CC(C)C)C(=O)N[C@@H](CC(C)C)C(=O)N[C@@H](CCC(=O)O)C(=O)N[C@@H](CC(N)=O)C(=O)N[C@@H](CCC(=O)O)C(=O)N[C@@H](C)C(=O)N[C@@H](C)C(=O)N[C@@H](C)C(=O)N[C@@H](CCCCN)C(=O)N[C@@H](CCCCNC(=O)CCC(=O)OC1CCC2(C)C(=CCC3C2CCC2(C)C(C(C)CCCC(C)C)CCC32)C1)C(N)=O)C(C)C (stereo partly drawn) [Compound 33] (Ac-SLEQVNKKINQSLKVNKKSDKLLENEAAAKK(X1)-NH2)	5.04 µM	> 8 µM
CC[C@H](C)[C@H](NC(=O)[C@H](CCC(=O)O)NC(=O)[C@H](CCC(=O)O)NC(=O)[C@H](CC(C)C)NC(=O)[C@H](CO)NC(=O)[C@H](CCC(N)=O)NC(=O)[C@H](CC(N)=O)NC(=O)[C@@H](NC(=O)[C@H](CCCCN)NC(=O)[C@H](CC(C)C)NC(=O)[C@H](CO)NC(=O)[C@H](CCC(N)=O)NC(=O)[C@H](CCC(=O)O)NC(=O)[C@@H](NC(=O)[C@H](CCCCN)NC(=O)[C@H](CCCCN)NC(=O)[C@H](CC(N)=O)NC(=O)[C@@H](NC(=O)[C@H](CCC(=O)O)NC(=O)[C@H](CCC(=O)O)NC(=O)[C@H](CC(=O)O)NC(=O)[C@H](Cc1ccccc1)NC(C)=O)C(C)C)[C@@H](C)CC)[C@@H](C)CC)C(=O)N[C@@H](CCCNC(=N)N)C(=O)N[C@@H](CCCCN)C(=O)N[C@@H](CO)C(=O)N[C@@H](CCC(=O)O)C(=O)N[C@@H](C)C(=O)N[C@@H](C)C(=O)N[C@@H](C)C(=O)N[C@@H](CCCCN)C(=O)N[C@@H](CCCCNC(=O)CCC(=O)OC1CCC2(C)C(=CCC3C2CCC2(C)C(C(C)CCCC(C)C)CCC32)C1)C(N)=O (stereo partly drawn) [Compound 34] (Ac-FDEEVNKKIEQSLKINQSLEEIRKSEAAAKK(X1)-NH2)	> 2 µM	1.5 µM
CC[C@H](C)[C@H](NC(=O)[C@H](CO)NC(C)=O)C(=O)N[C@@H](CO)C(=O)N[C@@H](CCC(N)=O)C(=O)N[C@H](C(=O)N[C@@H](CC(N)=O)C(=O)N[C@@H](CCC(=O)O)C(=O)N[C@@H](CCCCN)C(=O)N[C@H](C(=O)N[C@@H](CC(N)=O)C(=O)N[C@@H](CCC(=O)O)C(=O)N[C@H](C(=O)N[C@@H](CCC(N)=O)C(=O)N[C@@H](CO)C(=O)N[C@@H](CC(C)C)C(=O)N[C@@H](CCC(=O)O)C(=O)N[C@@H](CCC(=O)O)C(=O)N[C@@H](CCCCN)C(=O)N[C@@H](CO)C(=O)N[C@@H](CC(=O)O)C(=O)N[C@@H](CCCCN)C(=O)N[C@@H](CC(C)C)C(=O)N[C@@H](CC(C)C)C(=O)N[C@@H](CCCCN)C(=O)N[C@@H](CO)C(=O)N[C@@H](CCC(=O)O)C(=O)N[C@@H](C)C(=O)N[C@@H](C)C(=O)N[C@@H](C)C(=O)N[C@@H](CCCCN)C(=O)N[C@@H](CCCCNC(=O)CCC(=O)OC1CCC2(C)C(=CCC3C2CCC2(C)C(C(C)CCCC(C)C)CCC32)C1)C(N)=O)[C@@H](C)CC)[C@@H](C)CC)C(C)C (stereo partly drawn) [Compound 35] (Ac-SISQVNEKINEIQSLEEKSDKLLKSEAAAKK(X1)-NH2)	5.53 µM	5.1 µM
CC[C@H](C)[C@H](NC(=O)[C@H](CCCCN)NC(=O)[C@H](CC(=O)O)NC(=O)[C@H](CO)NC(=O)[C@H](CCC(N)=O)NC(=O)[C@H](CCCCN)NC(=O)[C@H](CCCCN)NC(=O)[C@H](CC(C)C)NC(=O)[C@H](CO)NC(=O)[C@H](CCC(N)=O)NC(=O)[C@H](CCCCN)NC(=O)[C@H](CCC(=O)O)NC(=O)[C@H](CCC(=O)O)NC(=O)[C@H](CCC(=O)O)NC(=O)[C@@H](NC(=O)[C@H](CCCCN)NC(=O)[C@H](CCCCN)NC(=O)[C@H](CC(N)=O)NC(=O)[C@@H](NC(C)=O)C(C)C)[C@@H](C)CC)C(=O)N[C@@H](CCC(=O)O)C(=O)N[C@@H](CCC(=O)O)C(=O)N[C@@H](CO)C(=O)N[C@@H](CC(=O)O)C(=O)N[C@@H](CCC(=O)O)C(=O)N[C@@H](CC(N)=O)C(=O)N[C@@H](CCC(=O)O)C(=O)N[C@@H](C)C(=O)N[C@@H](C)C(=O)N[C@@H](C)C(=O)N[C@@H](CCCCN)C(=O)N[C@@H](CCCCNC(=O)CCC(=O)OC1CCC2(C)C(=CCC3C2CCC2(C)C(C(C)CCCC(C)C)CCC32)C1)C(N)=O (stereo partly drawn) [Compound 36] (Ac-VNKKIEEEKQSLKKQSDKIEESDENEAAAKK(X1)-NH2)	6.82 µM	> 8 µM
CC[C@H](C)[C@H](NC(=O)[C@H](CCCCN)NC(=O)[C@H](CCCCN)NC(=O)[C@H](CC(N)=O)NC(=O)[C@@H](NC(=O)[C@H](CC(C)C)NC(=O)[C@H](CCC(=O)O)NC(=O)[C@H](CC(=O)O)NC(=O)[C@H](Cc1ccccc1)NC(C)=O)C(C)C)C(=O)N[C@@H](CCC(=O)O)C(=O)N[C@@H](CCCCN)C(=O)N[C@H](C(=O)N[C@@H](CCC(=O)O)C(=O)N[C@@H](CCC(=O)O)C(=O)N[C@H](C(=O)N[C@@H](CC(N)=O)C(=O)N[C@@H](CCCCN)C(=O)N[C@@H](CCCCN)C(=O)N[C@@H](CO)C(=O)N[C@@H](CC(C)C)C(=O)N[C@@H](CCCCN)C(=O)N[C@@H](CC(C)C)C(=O)N[C@@H](CC(C)C)C(=O)N[C@@H](CCC(=O)O)C(=O)N[C@@H](CO)C(=O)N[C@@H](CCC(=O)O)C(=O)N[C@@H](C)C(=O)N[C@@H](C)C(=O)N[C@@H](C)C(=O)N[C@@H](CCCCN)C(=O)N[C@@H](CCCCNC(=O)CCC(=O)OC1CCC2(C)C(=CCC3C2CCC2(C)C(C(C)CCCC(C)C)CCC32)C1)C(N)=O)C(C)C)[C@@H](C)CC (stereo partly drawn) [Compound 37] (Ac-FDELVNKKIEKIEEVNKKSLKLLESEAAAKK(X1)-NH2)	5.23 µM	4 µM
